Measurements taken from US10239873B2, “7-azaindole or 4,7-diazaindole derivatives as IKKϵ epsilon and TBK1 inhibitor and pharmaceutical composition comprising same” (GREEN CROSS CORPORATION, priority 2015, dated 2019).

Key:
TBK1 = target: T1, TBK1 (Homo sapiens, UniProt Q9UHD2); test: ADP-Glo Kinase Assay, inhibition activity on TBK1; format: biochemical
T1 construct: purchased Promega (Invitrogen is also named in the same bracket) V4158; PR8031B; V3991 (not assigned to the two kinases)
T1 sequence (Q9UHD2 1-729): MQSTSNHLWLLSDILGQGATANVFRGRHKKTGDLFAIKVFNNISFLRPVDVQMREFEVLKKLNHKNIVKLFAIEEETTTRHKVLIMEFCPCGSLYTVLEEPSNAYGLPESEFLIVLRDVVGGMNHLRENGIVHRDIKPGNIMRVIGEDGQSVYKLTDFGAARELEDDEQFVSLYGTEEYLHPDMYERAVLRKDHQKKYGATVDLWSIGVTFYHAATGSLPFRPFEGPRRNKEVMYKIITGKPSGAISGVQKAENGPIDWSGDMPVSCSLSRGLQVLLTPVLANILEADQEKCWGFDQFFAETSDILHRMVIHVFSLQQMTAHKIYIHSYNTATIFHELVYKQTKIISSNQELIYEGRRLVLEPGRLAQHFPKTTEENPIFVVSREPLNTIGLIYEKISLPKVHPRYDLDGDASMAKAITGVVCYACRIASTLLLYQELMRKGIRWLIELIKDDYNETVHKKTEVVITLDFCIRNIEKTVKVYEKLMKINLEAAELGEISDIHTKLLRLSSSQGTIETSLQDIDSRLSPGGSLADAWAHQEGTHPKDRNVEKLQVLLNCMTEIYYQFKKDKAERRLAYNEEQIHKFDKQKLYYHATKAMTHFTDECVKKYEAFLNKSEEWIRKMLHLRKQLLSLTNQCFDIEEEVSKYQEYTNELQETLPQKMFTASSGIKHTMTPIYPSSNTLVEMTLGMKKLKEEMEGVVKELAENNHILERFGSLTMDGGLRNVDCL
Outline: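 In 40 mM Tris pH 7.5 with 20 mM MgCl2 and 0.1 mg/mL BSA, each enzyme (IKKε or TBK1 kinase system) was run according to the manufacturer's protocol. ADP formed was detected by ADP-Glo luminescence.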

IKKε = target: T2, IKKε (Homo sapiens, UniProt Q14164); test: ADP-Glo Kinase Assay, inhibition activity on IKKε; format: biochemical
T2 construct: purchased Promega and/or Invitrogen V4158; PR8031B; V3991 (not assigned to the two kinases)
T2 sequence (Q14164 1-716): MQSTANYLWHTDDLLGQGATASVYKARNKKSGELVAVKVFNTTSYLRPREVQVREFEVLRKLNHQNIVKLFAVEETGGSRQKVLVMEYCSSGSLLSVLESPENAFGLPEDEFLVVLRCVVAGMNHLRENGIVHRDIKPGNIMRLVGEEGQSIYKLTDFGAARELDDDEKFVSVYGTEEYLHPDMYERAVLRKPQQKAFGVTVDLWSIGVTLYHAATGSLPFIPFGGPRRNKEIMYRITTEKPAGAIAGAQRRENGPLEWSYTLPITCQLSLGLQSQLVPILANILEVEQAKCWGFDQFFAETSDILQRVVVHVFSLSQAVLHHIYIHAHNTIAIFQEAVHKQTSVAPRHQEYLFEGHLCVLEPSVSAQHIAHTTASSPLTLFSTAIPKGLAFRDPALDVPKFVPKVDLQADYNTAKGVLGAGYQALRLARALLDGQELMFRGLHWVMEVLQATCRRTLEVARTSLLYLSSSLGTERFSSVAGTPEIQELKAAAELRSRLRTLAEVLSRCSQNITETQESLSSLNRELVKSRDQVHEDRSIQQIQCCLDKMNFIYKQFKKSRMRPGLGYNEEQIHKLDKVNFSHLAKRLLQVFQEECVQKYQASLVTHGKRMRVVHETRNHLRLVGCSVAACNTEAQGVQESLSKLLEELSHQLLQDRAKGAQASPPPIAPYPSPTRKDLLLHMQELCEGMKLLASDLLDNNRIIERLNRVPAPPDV
Experimental: Inhibition activities on IKKϵ and TBK1 were evaluated using the compounds of Examples 1 to 250.
The inhibition activities on IKKϵ and TBK1 were measured by a luminometer, IKKϵ/TBK1 Kinase Enzyme System (Promega, Ca# V4158; Invitrogen, PR8031B, Promega, Ca# V3991) and ADP-Glo Kinase Assay using ADP-Glo™ Kinase Analysis Kit (Promega, Ca# V9101) and a kinase reaction buffer [40 mM Tris(pH 7.5), 20 mM MgCl2, 0.1 mg/mL BSA] in accordance with the manufacturer's protocol.

SMILES	IC50 (TBK1) [nM]	IC50 (IKKε) [nM]
O=C(NC1COC1)N1CC=C(c2c[nH]c3ncc(-c4ccc(CN5CCOCC5)s4)cc23)CC1 [Example 80, 4-(5-(5-(Morpholinomethyl)thiophen-2-yl)-1H-pyrrolo[2,3-b]pyridin-3-yl)-N-(oxetan-3-yl)-5,6-dihydropyridine-1(2H)-carboxamide]	1.2	3.4
COc1ccc(-c2cnc3[nH]cc(C4=CCN(C(=O)NC(C)C)CC4)c3c2)cc1OC [Example 18, 4-(5-(3,4-Dimethoxyphenyl)-1H-pyrrolo[2,3-b]pyridin-3-yl)-N-isopropyl-5,6-dihydropyridine-1(2H)-carboxamide]	2.5	45
CC(C)NC(=O)N1CC=C(c2c[nH]c3ncc(-c4ccc(CN5CCN(C)CC5)s4)cc23)CC1 [Example 33, N-isopropyl-4-(5-(5-((4-methylpiperazin-1-yl)methyl)thiophen-2-yl)-1H-pyrrolo[2,3-b]pyridin-3-yl)-5,6-dihydropyridine-1(2H)-carboxamide]	1.1	6.9
COc1ccc(-c2cnc3[nH]cc(C4CCN(C(=O)NC(C)C)C4)c3c2)cc1OC (stereo not shown) [Example 238, 3-(5-(3,4-dimethoxyphenyl)-1H-pyrrolo[2,3-b]pyridin-3-yl)-N-isopropylpyrrolidine-1-carboxamide]	6230	6050
CC1CN(C(=O)NC2CCCC2)CC=C1c1c[nH]c2ncc(-c3ccc(CN4CCN(C)CC4)s3)cc12 (stereo not shown) [Example 126, N-cyclopentyl-5-methyl-4-(5-(5-((4-methylpiperazin-1-yl)methyl)thiophen-2-yl)-1H-pyrrolo[2,3-b]pyridin-3-yl)-5,6-dihydropyridine-1(2H)-carboxamide]	15	33
CCC1C=C(c2c[nH]c3ncc(-c4ccc(CN5CCN(C)CC5)s4)cc23)CCN1C(=O)NC(C)C (stereo not shown) [Example 111, 2-Ethyl-N-isopropyl-4-(5-(5-((4-methylpiperazin-1-yl)methyl)thiophen-2-yl)-1H-pyrrolo[2,3-b]pyridin-3-yl)-5,6-dihydropyridine-1(2H)-carboxamide]	18	77
CC(C)CC(=O)N1CC=C(c2c[nH]c3ncc(-c4ccc(CN5CCOCC5)s4)cc23)CC1 [Example 10, 3-Methyl-1-(4-(5-(5-(morpholinomethyl)thiophen-2-yl)-1H-pyrrolo[2,3-b]pyridin-3-yl)-3,6-dihydropyridin-1(2H)-yl)butan-1-one]	75	130
O=C(NC1CCCC1)N1CC=C(c2c[nH]c3ncc(-c4ccc(S(=O)(=O)C5CC5)cc4)cc23)CC1 [Example 56, N-cyclopentyl-4-(5-(4-(cyclopropylsulfonyl)phenyl)-1H-pyrrolo[2,3-b]pyridin-3-yl)-5,6-dihydropyridine-1(2H)-carboxamide]	58	190
CCC(CC)NC(=O)N1CCC(c2c[nH]c3ncc(-c4ccc(CN5CCOCC5)s4)cc23)=CC1C (stereo not shown) [Example 92, 6-Methyl-4-(5-(5-(morpholinomethyl)thiophen-2-yl)-1H-pyrrolo[2,3-b]pyridin-3-yl)-N-(pentan-3-yl)-3,6-dihydropyridine-1(2H)-carboxamide]	35	130
CCC(CC)NC(=O)N1CCC(c2c[nH]c3ncc(-c4ccc(CN5CCN(C)CC5)s4)cc23)=CC1C (stereo not shown) [Example 91, 6-Methyl-4-(5-(5-((4-methylpiperazin-1-yl)methyl)thiophen-2-yl)-1H-pyrrolo[2,3-b]pyridin-3-yl)-N-(pentan-3-yl)-3,6-dihydropyridine-1(2H)-carboxamide]	46	180
CN1CCN(Cc2ccc(-c3cnc4[nH]cc(C5=CCN(C(=O)NC6CC6)CC5)c4c3)s2)CC1 [Example 47, N-cyclopropyl-4-(5-(5-((4-methylpiperazin-1-yl)methyl)thiophen-2-yl)-1H-pyrrolo[2,3-b]pyridin-3-yl)-5,6-dihydropyridine-1(2H)-carboxamide]	3.6	12
CC1C=C(c2c[nH]c3ncc(-c4ccc(CN5CCN(C)CC5)s4)cc23)CCN1C(=O)NC1CC1 (stereo not shown) [Example 96, N-cyclopropyl-2-methyl-4-(5-(5-((4-methylpiperazin-1-yl)methyl)thiophen-2-yl)-1H-pyrrolo[2,3-b]pyridin-3-yl)-5,6-dihydropyridine-1(2H)-carboxamide]	3.1	6.5
CC1C=C(c2c[nH]c3ncc(-c4ccc(S(C)(=O)=O)cc4)cc23)CCN1C(=O)NC1CCCC1 (stereo not shown) [Example 105, N-cyclopentyl-2-methyl-4-(5-(4-(methylsulfonyl)phenyl)-1H-pyrrolo[2,3-b]pyridin-3-yl)-5,6-dihydropyridine-1(2H)-carboxamide]	25	22
CN1CCN(Cc2ccc(-c3cnc4[nH]cc(C5=CCN(C(=O)NC6COC6)CC5)c4c3)cc2)CC1 [Example 78, 4-(5-(4-((4-Methylpiperazin-1-yl)methyl)phenyl)-1H-pyrrolo[2,3-b]pyridin-3-yl)-N-(oxetan-3-yl)-5,6-dihydropyridine-1(2H)-carboxamide]	15	55
CC(C)NC(=O)N1CCC(c2c[nH]c3ncc(-c4ccc(CN5CCOCC5)cc4)cc23)=CC1C (stereo not shown) [Example 90, N-isopropyl-2-methyl-4-(5-(4-(morpholinomethyl)phenyl)-1H-pyrrolo[2,3-b]pyridin-3-yl)-5,6-dihydropyridine-1(2H)-carboxamide]	5.2	5.5
CC(C)NC(=O)N1CC=C(c2c[nH]c3ncc(-c4ccc(CN5CCCC5)s4)cc23)CC1 [Example 28, N-isopropyl-4-(5-(5-(pyrrolidin-1-ylmethyl)thiophen-2-yl)-1H-pyrrolo[2,3-b]pyridin-3-yl)-5,6-dihydropyridine-1(2H)-carboxamide]	18	58
CC(C)OC(=O)N1CC=C(c2c[nH]c3ncc(-c4ccc(S(C)(=O)=O)cc4)cc23)CC1 [Example 148, Isopropyl 4-(5-(4-(methylsulfonyl)phenyl)-1H-pyrrolo[2,3-b]pyridin-3-yl)-5,6-dihydropyridine-1(2H)-carboxylate]	54	250
CS(=O)(=O)c1cccc(-c2cnc3[nH]cc(C4=CCN(C(=O)NC5CCCC5)CC4)c3c2)c1 [Example 52, N-cyclopentyl-4-(5-(3-(methylsulfonyl)phenyl)-1H-pyrrolo[2,3-b]pyridin-3-yl)-5,6-dihydropyridine-1(2H)-carboxamide]	23	48
CC1C=C(c2c[nH]c3ncc(-c4ccc(CN5CCN(C)CC5)cc4)cc23)CCN1C(=O)NC1CCC1 (stereo not shown) [Example 99, N-cyclobutyl-2-methyl-4-(5-(4-((4-methylpiperazin-1-yl)methyl)phenyl)-1H-pyrrolo[2,3-b]pyridin-3-yl)-5,6-dihydropyridine-1(2H)-carboxamide]	28	64
CCC1C=C(c2c[nH]c3ncc(-c4ccc(CN5CCOCC5)cc4)cc23)CCN1C(=O)NC(C)C (stereo not shown) [Example 112, 6-Ethyl-N-isopropyl-4-(5-(4-(morpholinomethyl)phenyl)-1H-pyrrolo[2,3-b]pyridin-3-yl)-3,6-dihydropyridine-1(2H)-carboxamide]	56	62
